{"source": "patent US20250136543A1", "about": "“8-[(2-HYDROXYNAPHTHALEN-1-YL)DIAZENYL]NAPHTHALENE-1,3-DISULFONIC ACID AS AN ANTIOXIDANT COMPOUND” (KING FAISAL UNIVERSITY, priority 2023, published 2025)", "test": "DPPH radical scavenging antioxidant test", "format": "biochemical", "settings": "517 nm; for Inhibition (radical scavenging inhibition): 0.2 mL DPPH (0.75 mM), compound 3 μM in ethanol, 30 min incubation in the dark", "method": "The antioxidant properties of the 8-[(2-hydroxynaphthalen-1-yl)diazenyl]naphthalene-1,3-disulfonic acid were studied by adding 0.2 mL DPPH (0.75 mM)) to compound 8-[(2-hydroxynaphthalen-1-yl)diazenyl]naphthalene-1,3-disulfonic acid (III) (3 μM) in ethanol. After 30 min of incubation in the dark, the absorbance was read against a blank at 517 nm. Ascorbic acid (vitamin C) was used as standard antioxidants (positive control). A blank sample was prepared by 0.2 ml of DPPH in 3 ml ethanol. A negative control sample was run using ethanol instead of the sample. The radical scavenging inhibition was calculated using the following equation: […]\nThe antioxidant activity for the synthesized compound is listed in Table 1, using Vitamin C as a reference.", "data": [{"smiles": "O=C1O[C@H]([C@@H](O)CO)C(O)=C1O", "note": "[vit c, Ascorbic acid, reference compound]", "values": [{"measurement": "Inhibition (radical scavenging inhibition)", "value": 74, "unit": "%"}]}, {"smiles": "O=S(=O)(O)c1cc(S(=O)(=O)O)c2c(/N=N/c3c(O)ccc4ccccc34)cccc2c1", "note": "[Product III, 8-[(2-hydroxynaphthalen-1-yl)diazenyl]naphthalene-1,3-disulfonic acid]", "values": [{"measurement": "Inhibition (radical scavenging inhibition)", "value": 54, "unit": "%"}, {"measurement": "antioxidant potential compared to vitamin C", "setting": "DPPH in vitro test, vitamin C as positive control", "value": "high potential as an antioxidant compared to vitamin C"}]}]}
